Source: article PMC5589090 (PLoS Medicine, 2017)
“And” between values parts separate entries of the source, which are not always exact repeats. Equal values may be shown once. “Also recorded” adds a separate entry of the source. Read-outs that look alike come from different tables or passages of the source.

Experiments:
HbF [1] = conditions: same non-human primates (n = 14); cited from earlier work
[2] = 4 SCD subjects, subcutaneous or oral, 30-500 days; cited from earlier work
[3] = cited from earlier work
nucleotide pool sizes = conditions: cited from earlier work
[4] = THU solubility and storage stability; format: physicochemical; conditions: stored at -20°C; 1 year study and about 4 years re test
Method: Prior to administration, a glass bottle containing THU will be brought to room temperature, and dissolved in 2 ml water with a further dilution to a final volume of 10 ml, to create a solution with a final concentration that is determined by the amount of drug in the glass vial (THU is soluble to at least 100 mg/ml in water). Using this final concentration, a volume of solution containing the appropriate dose will be removed, diluted further with water to a total volume of 30ml and given by mouth. The time between reconstitution of drug and oral administration should not exceed 60 minutes, and remaining solution is to be discarded.

[5] = set-up: method as in ref 40,59-61,63-69 (main text); 25;37-45 (protocol); conditions: 25;37-45 (protocol); cited from earlier work
[6] = in vivo; cited from earlier work
[7] = cited from earlier work; remark: listed apart in the source
[8] = set-up: method as in ref 26 (a number printed in a supplementary file, which may have a reference list of its own: not looked up in the article's list); conditions: cited from earlier work
[9] = cited from earlier work; remark: listed apart in the source
HbF [10] = conditions: cited from earlier work
mammary tumors = conditions: intraperitoneal 125-250 mg/kg thrice weekly for 6 months, rats surviving to 18 months; cited from earlier work

Nc1ncn([C@@H]2O[C@H](CO)[C@@H](O)[C@H]2O)c(=O)n1 [5-azacytidine]
greater increases in HbF than cytarabine or hydroxyurea (HbF [1]): 2 to 20 fold | marrow toxicity [2]: No marrow toxicity was observed

O=C1NC(O)CCN1[C@@H]1O[C@H](CO)[C@@H](O)[C@H]1O (stereo partly drawn) [THU, tetrahydrouridine]
solubility in water [3]: at least 100 mg/ml | effect on nucleotide pool sizes (nucleotide pool sizes): no effect | stability of bulk drug [4]: demonstrate THU stability | toxicity / side effects in animals and humans [5]: No toxicities have been found; also recorded: have not identified any toxic side-effects; also recorded: no toxic side-effects have been identified; also recorded: benign toxicity profile; also recorded: no side effects observed; also recorded: has not caused toxicity | share of elimination by renal excretion [6]: ~ 50%

Nc1ccn([C@@H]2O[C@H](CO)[C@@H](O)[C@@H]2O)c(=O)n1 [cytarabine]
greater exposure in mice versus monkey dose for dose [7]: more than 100 fold

Nc1ccn([C@@H]2O[C@H](CO)[C@@H](O)C2(F)F)c(=O)n1 [gemcitabine]
oral bioavailability ([8]; with THU co-administration): ~ 40% | oral bioavailability ([8]; without THU): ~ 10%

NC(=O)NO [hydroxyurea]
genotoxicity ([9]; package insert): genotoxic in a wide range of test systems | neutrophil recovery time ([9]; pancellular hematologic toxicities, ref AHFS Drug Information, 2000): up to 2 weeks | mean change in HbF after 2 years of treatment (HbF [10]; SCD patients with no HbF response in the pivotal trial): ~0% and 0.3% | adult SCD patients in whom HbF increased for 2 years (HbF [10]; hydroxyurea 15–35 mg/kg, pivotal trial): approximately 50% | subjects who did not respond (no elevated HbF after two years) (HbF [10]; pivotal multi-center trial): approximately 50% | Average HbF increases at 2 years (HbF [10]; pivotal trial): 3.6% | average total hemoglobin increase (HbF [10]; pivotal trial): 0.6 g/dL | incidence of mammary tumors (mammary tumors): increased the incidence of mammary tumors
